The source of these data is patent US12509429B2, “Hydroxybenzamide derivatives and methods of use in treating diabetes” (THE BOARD OF REGENTS OF THE UNIVERSITY OF OKLAHOMA, priority 2022, dated 2025).

Data set [1] has as its system INS-1 cells. Kind of data set: Cell viability assay: protection of INS-1 cells from tunicamycin (Tm)-induced loss of viability (CellTiter-Glo, intracellular ATP). It is filed as cell-based, rat. To be noted: for Emax / EC50: Rattus norvegicus; for Emax: % rescue from Tm (0.15 μg/mL)-induced reduction of INS-1 cell viability (intracellular ATP), Tm alone 0%, DMSO without Tm 100%, 72 h, read-out: Maximum % of Protection; for EC50: INS-1 cell viability, Tm 0.15 μg/mL, ten 2-fold serial titration points, GraphPad Prism. On the procedure:
INS-1 cells were resuspended in RPMI 1640 medium containing 10% FBS and seeded at 5×10^3 cells/well in a 384-well plate. After overnight 24 h incubation, compounds were added to the wells at the indicated concentration using a pin-transfer robot (PerkinElmer). Tm in RPMI 1640 medium containing 10% FBS was then added at a final concentration of 0.15 μg/mL. After 72 h, the medium was removed and 20 μL of CellTiter-Glo reagent (Promega) was added. Luminescence was measured 10 min later using a Synergy Neo2 plate reader (Biotek).
Hydroxy benzamide (HBA) derivatives were synthesized based on various scaffolds and evaluated for their viability of rat INS-1 β cells in the presence of tunicamycin (Tm), a potent ER stress inducer that inhibits N-linked glycosylation of proteins. The maximum activities and the concentrations that reach half-maximal activity (EC50) of the compounds were evaluated by the degree of increase in viability of INS-1 cells co-treated with the compounds in the presence of Tm compared with Tm treatment alone.

In data set [2] the test system is INS-1 cells. To be noted: earlier work; protection of β-cell survival against ER stress; cited from earlier work.

Read-outs that look alike come from different tables or passages of the source.

One may read the EC50 as the concentration giving half of the maximal effect. In the case of `O=C(NCc1ccc(C(F)(F)F)cc1)c1cccc(OCC2CCNCC2)c1` [Compound 3l, 3-(Piperidin-4-ylmethoxy)-N-(4-(trifluoromethyl)benzyl)benzamide], in the data set on INS-1 cells [1] (INS1), the Emax was found to be 81% and the concentration giving a half-maximal response (EC50) was found to be 2.1 µM.
For `CN(C)c1ccc(CNC(=O)c2cccc(O)c2)cc1` [Compound 3p, N-(4-(Dimethylamino)benzyl)-3-hydroxybenzamide], in that order: 43% and 7.1 µM.
Take `O=C(NCc1ccc(C(F)(F)F)cc1)c1ccc(O)cc1` [Compound 3h, 4-Hydroxy-N-(4-(trifluoromethyl)benzyl)benzamide]: in the data set on INS-1 cells [1] (INS1), the Emax turned out to be 100% and the concentration giving a half-maximal response (EC50) amounted to 0.27 µM.
For `COc1ccc(-c2ncc(-c3ccc(C(F)(F)F)cc3)[nH]2)cc1` [Compound 1c, 2-(4-Methoxyphenyl)-5-(4-(trifluoromethyl)phenyl)-1H-imidazole], the “β-cell protective activity (in words)” value in the data set on INS-1 cells [1] (INS-1 cells with Tm) is listed as “no improvement”. Further, in the data set with INS-1 cells [1] (INS1), the Emax is 17% and the concentration for a half-maximal effect (EC50) stood at 0.21 µM.
Consider `O=C(NCc1ccc(C(F)(F)F)cc1)c1ccc(O)c(O)c1` [Compound 3f, 3,4-Dihydroxy-N-(4-(trifluoromethyl)benzyl)benzamide], for which, in the data set with INS-1 cells [1] (INS1), the Emax was found to be 100% and the EC50 was determined as 2.2 µM. In addition, the Concentration at which maximal protection is reached in the data set with INS-1 cells [1] (text of b115, unit printed as PM, unit of the source corrected) came to 10 µM.
Consider `O=C(NCc1ccc(C(F)(F)F)cc1)c1cccc(OCC2CCCCC2)c1` [Compound 3k, 3-(Cyclohexylmethoxy)-N-(4-(trifluoromethyl)benzyl)benzamide], for which, in the data set with INS-1 cells [1] (INS1), the Emax turned out to be 100% and the concentration for a half-maximal effect (EC50) amounted to 0.72 µM.
As for `CCc1ccc(C(=O)NCc2cccc(C(F)(F)F)c2)cc1` [Compound 3b, 4-Ethyl-N-(3-(trifluoromethyl)benzyl)benzamide], the “β-cell protective activity (in words)” value with INS-1 cells [1] (INS-1 cells with Tm) was “poorer β-cell protective activity”. Further, in the data set on INS-1 cells [1] (INS1), the Emax is 43% and the concentration giving a half-maximal response (EC50) stood at 4.4 µM.
Turning to `O=C(NCc1cccc(C(F)(F)F)c1)c1cccc(O)c1` [Compound 3c, 3-Hydroxy-N-(3-(trifluoromethyl)benzyl)benzamide], in the data set with INS-1 cells [1] (INS1), the Emax stood at 37% and the EC50 was 9.9 µM.
`COc1ccc(CNc2ncc(-c3ccccc3OC)[nH]2)cc1` [Compound 2b, N-(4-methoxybenzyl)-5-(2-methoxyphenyl)-1H-imidazol-2-amine]: the “β-cell protective activity (in words)” value with INS-1 cells [1] (INS-1 cells with Tm) is recorded as “reduced the protecting activity”. Besides, in the data set on INS-1 cells [1] (INS1), the Emax was determined as 9% and the concentration giving a half-maximal response (EC50) worked out at 0.021 µM.
Consider `O=C(NCc1ccc(C(F)(F)F)cc1)Nc1cccc(O)c1` [Compound 5a, 1-(3-Hydroxyphenyl)-3-(4-(trifluoromethyl)benzyl)urea], for which, in the data set on INS-1 cells [1] (INS1), the Emax stood at 65% and the concentration giving a half-maximal response (EC50) came to 2.6 µM.
As to `COc1cccc(C(=O)NCc2ccc(C(F)(F)F)cc2)c1` [Compound 3j, 3-Methoxy-N-(4-(trifluoromethyl)benzyl)benzamide], in the data set with INS-1 cells [1] (INS1), the Emax turned out to be 71% and the concentration giving a half-maximal response (EC50) was found to be 25 µM.
For `CC(C)c1ccc(CNC(=O)c2cccc(O)c2)cc1` [Compound 3o, 3-Hydroxy-N-(4-isopropylbenzyl)benzamide], in that order: 82% and 1.7 µM.
For `COc1cccc(NC(=O)NCc2ccc(C(F)(F)F)cc2)c1` [Compound 5b, 1-(3-Methoxyphenyl)-3-(4-(trifluoromethyl)benzyl)urea], in that order: 94% and 1.6 µM.
In the case of `O=C(NCc1ccc(C(F)(F)F)cc1)c1cccc(OCc2cccc(C(F)(F)F)c2)c1` [Compound 3n, N-(4-(Trifluoromethyl)benzyl)-3-((3-(trifluoromethyl)benzyl)oxy)benzamide], the “β-cell protective activity (in words)” value in the data set on INS-1 cells [1] (INS-1 cells with Tm) was “markedly diminished activity”. For the same molecule, in the data set with INS-1 cells [1] (INS1), the Emax stood at 58% and the EC50 was determined as 6.3 µM.
On to `COc1ccc(CNC(=O)c2cccc(O)c2)cc1` [Compound 3r, 3-Hydroxy-N-(4-methoxybenzyl)benzamide], for which, in the data set on INS-1 cells [1] (INS1), the Emax is 65% and the EC50 was determined as 21.3 µM.
`Oc1cccc(-c2ncc(-c3ccc(C(F)(F)F)cc3)[nH]2)c1O` [Compound 1a, 3-(5-(4-(Trifluoromethyl)phenyl)-1H-imidazol-2-yl)benzene-1,2-diol]: in the data set on INS-1 cells [1] (INS-1 cells with Tm), the “Toxicity at rising compound concentration (in words)” value is on record as “became toxic when the compound concentration arose” and the “β-cell protective activity (in words)” value is reported as “some β-cell protective activity at sub-micro molar concentrations”. Moreover, in the data set on INS-1 cells [1] (INS1), the Emax is 14% and the EC50 was 0.26 µM.
On to `Cc1c(Cl)cccc1C(=O)NCc1cccc(C(F)(F)F)c1` [Compound 3a, 3-Chloro-2-methyl-N-(3-(trifluoromethyl)benzyl)benzamide], for which, in the data set with INS-1 cells [1] (INS1), the Emax turned out to be 83% and the EC50 turned out to be 10 µM.
For the molecule `Cc1ccc(C)c(NC(=O)c2nnn(-c3cccc(Cl)c3C)c2C)c1` [Compound 1, 1-(3-chloro-2-methylphenyl)-N-(2,5-dimethylphenyl)-5-methyl-1H-1,2,3-triazole-4-carboxamide, reference compound], the maximal activity with INS-1 cells [2] is 87%. In the data set with INS-1 cells [1] (INS1), the Emax worked out at 87% and the 50% effective concentration (EC50) was determined as 2.8 µM.
With `COc1cc(-c2ncc(-c3ccc(C(F)(F)F)cc3)[nH]2)ccc1O` [Compound 1b, 2-Methoxy-4-(5-(4-(trifluoromethyl)phenyl)-1H-imidazol-2-yl)phenol], the “β-cell protective activity (in words)” value in the data set with INS-1 cells [1] (INS-1 cells with Tm) was “no improvement”. Besides, in the data set with INS-1 cells [1] (INS1), the Emax is 7% and the EC50 amounted to 0.26 µM.
As to `O=C(NCc1cccc(C(F)(F)F)c1)c1ccc(O)c(O)c1` [Compound 3d, 3,4-Dihydroxy-N-(3-(trifluoromethyl)benzyl)benzamide], in the data set on INS-1 cells [1] (INS1), the Emax worked out at 51% and the concentration giving a half-maximal response (EC50) worked out at 20.5 µM.
As to `O=C(Cc1cccc(O)c1)NCc1ccc(C(F)(F)F)cc1` [Compound 4a, 2-(3-Hydroxyphenyl)-N-(4-(trifluoromethyl)benzyl)acetamide], the Emax in the data set with INS-1 cells [1] (INS1, 72 h) came to 32%. In addition, the EC50 in the data set with INS-1 cells [1] (INS1) stood at 3.5 µM.
Turning to `O=C(NCc1ccc(C(F)(F)F)cc1)c1cccc(O)c1O` [Compound 3g, 2,3-Dihydroxy-N-(4-(trifluoromethyl)benzyl)benzamide], in the data set with INS-1 cells [1] (INS1), the Emax was found to be 100% and the EC50 came out at 3.1 µM.
Regarding `COc1ccc(CNc2ncc(-c3ccc(C(F)(F)F)cc3)[nH]2)cc1` [Compound 2a, N-(4-methoxybenzyl)-5-(4-(trifluoromethyl)phenyl)-1H-imidazol-2-amine], in the data set on INS-1 cells [1] (INS1), the Emax was 18% and the 50% effective concentration (EC50) came to 0.05 µM.
In the case of `COc1cc(CNC(=O)c2cccc(O)c2)ccc1O` [Compound 3s, 3-Hydroxy-N-(4-hydroxy-3-methoxybenzyl)benzamide], in the data set on INS-1 cells [1] (INS1), the Emax was 57% and the 50% effective concentration (EC50) was 28.7 µM.
Consider `O=C(NCc1cccc(O)c1)c1cccc(O)c1` [Compound 3q, 3-Hydroxy-N-(3-hydroxybenzyl)benzamide], for which, in the data set with INS-1 cells [1] (INS1), the Emax is 22% and the EC50 worked out at 18.3 µM.
For `COc1cccc(COc2cccc(C(=O)NCc3ccc(C(F)(F)F)cc3)c2)c1` [Compound 3m, 3-((3-Methoxybenzyl)oxy)-N-(4-(trifluoromethyl)benzyl)benzamide], in that order: 81% and 4.1 µM.
With `COc1cc(CNC(=O)c2ccc(O)c(OC)c2)ccc1O` [Compound 3t, 4-Hydroxy-N-(4-hydroxy-3-methoxybenzyl)-3-methoxybenzamide], the “β-cell protective activity (in words)” value in the data set with INS-1 cells [1] (INS-1 cells with Tm) was “equally poor β-cell protective activity”. Also, in the data set with INS-1 cells [1] (INS1), the Emax was found to be 55% and the EC50 turned out to be 29.1 µM.
`COc1cc(C(=O)NCc2cccc(C(F)(F)F)c2)ccc1O` [Compound 3e, 4-Hydroxy-3-methoxy-N-(3-(trifluoromethyl)benzyl)benzamide]: in the data set with INS-1 cells [1] (INS1), the Emax is 100% and the EC50 came out at 3.1 µM.
